The supplement of paper PMC4862054

Experiments:
Details in all cases: incubation time: 72 h
BT-474 [1] = experiment: drug sensitivity score (DSS), CellTiter-Blue viability (DSS (AUC-based score)); higher = stronger viability inhibition; extreme values may be limits of the assay
Experimental: (§1)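 DSRT with the CellTiter-Blue (resazurin reduction) viability readout, fluorescence 560/590 nm, 72 h incubation. Plates were normalised to DMSO and benzethonium chloride controls. DSS is computed from the area under the fitted dose-response curve (5 or 9 concentrations).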

BT-549 [2] = experiment: as above
Experimental: as §1

CAL-120 [3] = experiment: as above
Experimental: as §1

CAL-148 = experiment: as above
Experimental: as §1

CAL-51 [4] = experiment: as above
Experimental: as §1

CAL-85-1 = experiment: as above
Experimental: as §1

DU-4475 [5] = experiment: as above
Experimental: as §1

HCC1599 [6] = experiment: as above
Experimental: as §1

HCC1937 = experiment: as above
Experimental: as §1

HDQ-P1 = experiment: as above
Experimental: as §1

Hs578T = experiment: as above
Experimental: as §1

MDA-MB-231 [7] = experiment: as above
Experimental: as §1

MDA-MB-436 = experiment: as above
Experimental: as §1

MDA-MB-453 = experiment: as above
Experimental: as §1

MFM-223 = experiment: as above
Experimental: as §1

BT-474 [8] = experiment: drug sensitivity score (DSS), CellTiter-Glo (DSS (AUC-based score)); higher = stronger drug effect (viability inhibition or cytotoxicity); extreme values may be limits of the assay
Outline: (§2)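 Plates with 384 wells held compound at 5 concentrations in 10-fold steps over a 10,000-fold range specific to each compound. Breast cancer cell lines were added in 20 µl suspension and incubated 72 h, then read for CellTox Green and CellTiter-Glo signals, with each plate normalised to 0.1 % DMSO and a positive kill control. The drug sensitivity score is based on the area under the fitted dose-response curve.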

BT-549 [9] = experiment: as above
Outline: as §2

CAL-120 [10] = experiment: as above
Outline: as §2

CAL-51 [11] = experiment: as above
Outline: as §2

DU-4475 [12] = experiment: as above
Outline: as §2

HCC1143 = experiment: as above
Outline: as §2

HCC1599 [13] = experiment: as above
Outline: as §2

MCF-10A = experiment: as above
Outline: as §2

MDA-MB-231 [14] = experiment: as above
Outline: as §2

MDA-MB-468 = experiment: as above
Outline: as §2

SK-BR-3 = experiment: as above
Outline: as §2

SMILES | drug sensitivity score (BT-474 [1]) | drug sensitivity score (BT-549 [2]) | drug sensitivity score (CAL-120 [3]) | drug sensitivity score (CAL-148) | drug sensitivity score (CAL-51 [4]) | drug sensitivity score (CAL-85-1) | drug sensitivity score (DU-4475 [5]) | drug sensitivity score (HCC1599 [6]) | drug sensitivity score (HCC1937) | drug sensitivity score (HDQ-P1) | drug sensitivity score (Hs578T) | drug sensitivity score (MDA-MB-231 [7]) | drug sensitivity score (MDA-MB-436) | drug sensitivity score (MDA-MB-453) | drug sensitivity score (MFM-223) | drug sensitivity score (BT-474 [8]) | drug sensitivity score (BT-549 [9]) | drug sensitivity score (CAL-120 [10]) | drug sensitivity score (CAL-51 [11]) | drug sensitivity score (DU-4475 [12]) | drug sensitivity score (HCC1143) | drug sensitivity score (HCC1599 [13]) | drug sensitivity score (MCF-10A) | drug sensitivity score (MDA-MB-231 [14]) | drug sensitivity score (MDA-MB-468) | drug sensitivity score (SK-BR-3)
CN(C)CCOc1ccc(/C(=C(/CCCl)c2ccccc2)c2ccccc2)cc1 [Toremifene] | 0 | 0 | 0 | 0 | 0 | 0 | 0 | 0 | 0 | 0 | 0 | 0 | 1.83 | 1.86 | 0 | 1.35 | 0 | 0 | 0 | 0 | 0 | 0 | 1.79 | 0 | 0 | 0
CC(C)C[C@@H](C(=O)N[C@H](C(=O)OC1CCCC1)c1ccccc1)[C@H](O)C(=O)NO [Tosedostat] | 0 | 11.3 | 12.7 | 7.49 | 4.1 | 4.66 | 13.4 | 0 | 14.9 | 4.23 | 2.31 | 12.5 | 1.84 | 15.8 | 8.63 | 16.9 | 12.3 | 12.7 | 4.55 | 0 | 5.96 | 0 | 0 | 11.1 | 19.1 | 0
COc1cc2/c(=N/c3ccc(Br)cc3F)nc[nH]c2cc1OCC1CCN(C)CC1 [Vandetanib] | 7.12 | 5.01 | 3.15 | 0 | 6.07 | 6.73 | 0 | 0 | 0 | 14 | 3.9 | 6.74 | 13 | 3.82 | 8.55 | 3.47 | 0 | 0.197 | 0.137 | 0 | 0 | 0 | 10.3 | 0 | 4.76 | 0
COCC[n+]1c2c(n(Cc3cnccn3)c1C)C(=O)c1ccccc1C2=O [YM155] | 32.9 | 26.8 | 40.9 | 35.7 | 31.9 | 38 | 23.3 | 34 | 39.1 | 33.6 | 22.6 | 40 | 37.9 | 35.5 | 29.7 | 40 | 25.8 | 42.3 | 33.8 | 27.1 | 35.2 | 35.3 | 29.5 | 37.8 | 41.9 | 33
